According to patent US9867372B2, “Tetrazolinone compound and use of same” (SUMITOMO CHEMICAL COMPANY, LIMITED, priority 2013, dated 2018):

Test system: cucumber powdery mildew fungus (Sphaerotheca fuliginea, a QoI-resistant strain, cytochrome b position 143 mutated from glycine to alanine)
Assay type: in vivo
Conditions: 200 ppm, QoI-resistant strain (Test Example 2, Comparative Example 2)

Which “area of lesion spots on the treated plant relative to that on an untreated plant” value does the source give for `Cn1nnn(-c2ccccc2COc2cccc(-c3ccccc3)c2)c1=O` [1-[2-(biphenyl-3-yloxymethyl)-phenyl]-4-methyl-1,4-dihydrotetrazol-5-one] here?
Its value is ≥ 70%.
